We go through two substances from patent US20060216779A1, “Method for the detection of post-translational modification activities and device system for carrying out said method” (priority 2003, published 2006).

Data set [1] can be described thus: measurement of the relative dielectric constant ε of the peptide in water in a measuring capacitor. The class given is physicochemical. Particulars: dissolved in water, 1.14 mM, 4 microlitres, t=23° C. The procedure:
According to further variant for the detection of posttranslational activities, the dielectric constant (permittivity) of a liquid sample with a sensor is measured. As is evident from FIG. 3A, the sample is located in a detection cell (measuring cell 11) serving as a capacitor. The introduction of a polarizing dielectric between the capacitor plates reduces the electric field intensity in vacuum E0 to P/ε0: E=E0−P/ε0 (4) where […] and P is the induced polarization of the dielectric with dielectric constant ε.
The polypeptides (S1) or (S2) dissolved in water have been placed as a dielectric between the electrode plates of the measuring capacitor (measuring cell 11), see FIG. 3A. Polypeptide ELDVPIPGRFDRRVSVAAD (S1) is a specific substrate for protein kinase A which catalyses the phosphorylation of serine. Phosphatase PP2B implements the dephosphorylation of serine of the polypeptide ELDVPIPGRFDRRVpSVAAD (S2). […]
Regarding the detection of peptide modification in tests through the measurement of the relative dielectric constant ε, the following should be added: four microlitres of samples, each containing the polypeptide S1 (unphosphorylated) or S2 (phosphorylated) (table 1), dissolved in water to a concentration of 1.14 mM, are directly introduced between the electrode plates of a measuring capacitor. The dielectric constant ε is measured at a temperature of t=23° C. […]

Data set [2] in a line: measurement of the frequency shift of an oscillator with the peptide sample as core of the induction coil. The class given is physicochemical. Conditions: 150 μL sample, 1.14M in water, t=22° C., f0=5342.9 kHz; S2 instead of S1. The text has this: According to a further variant of the method for the detection of posttranslational activities, the polypeptides (S1) or (S2) dissolved in water and used as substrates are located in a measuring cell with an inductivity of L and a capacitance of C which functions as an oscillator (FIG. 5). The frequency ω can be determined by […] which can be measured to a high degree of accuracy (10^−5).
For the detection of peptide modification through the measurement of the frequency shift of an oscillator, an experiment was carried out as follows:
A tube containing 150 μL of samples with unphosphorylated peptide S1 or phosphorylated peptide S2 (concentration […] in water) was placed as the core in an induction coil of an oscillator. Frequency f was measured at temperature t=22° C., f0=5342.9 kHz.

Take “ELDVPIPGRFDRRVSVAAD [Sensor S1, synthesized polypeptide sensor, specific substrate for protein kinase A]”: the “dielectric constant ε” value in data set [1] is reported as 76.
For ELDVPIPGRFDRRVpSVAAD [Sensor S2], the “dielectric constant ε” value in data set [1] is recorded as 70. Further, the oscillator frequency change entry in data set [2] is reported as “distinct reduction in frequency”.
